Experimental data as given in PubChem BioAssay AID256 (DTP/NCI, 2004).
Inconclusive results and toxic doses are left out.

Test system: CD2F1 mice, L1210 leukemia ip, survival T/C
Assay: NCI In Vivo Anticancer Drug Screen. Data for tumor model L1210 Leukemia (intraperitoneal) in CD2F1 (CDF1) mice
Conditions: endpoint: mean survival time, higher = longer survival
Summary of the method: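 Transplantable tumor in mice; compound-treated vs vehicle-treated groups. Read-out = treated/control ratio of the measured endpoint.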

[1] = dose: 100.0 mg/kg/injection, schedule: Q01DX001 (ip), vehicle: saline with Tween-80
[2] = dose: 200.0 mg/kg/injection, schedule: Q01DX001 (ip), vehicle: saline with Tween-80
[3] = dose: 400.0 mg/kg/injection, schedule: Q01DX001 (ip), vehicle: saline with Tween-80
[4] = dose: 100.0 mg/kg/injection, schedule: Q01DX001 (ip), vehicle: saline
[5] = dose: 200.0 mg/kg/injection, schedule: Q01DX001 (ip), vehicle: saline
[6] = dose: 100.0 mg/kg/injection, schedule: Q04DX003 (ip), vehicle: saline with Tween-80
[7] = dose: 75.0 mg/kg/injection, schedule: Q01DX001 (ip), vehicle: saline
[8] = dose: 150.0 mg/kg/injection, schedule: Q01DX001 (ip), vehicle: saline
[9] = dose: 300.0 mg/kg/injection, schedule: Q01DX001 (ip), vehicle: saline

`CC(=O)OC(C)CC(C)(C)OC(C)=O` (stereo not given) was tested, and the T/C [1] was 95 % of control, the T/C [2] was 92 % of control and the T/C [3] was 103 % of control.
`c1ccc(CCNc2ncnc3nc[nH]c23)cc1` was tested, and the T/C (dose: 6.25 mg/kg/injection, schedule: Q01DX005 (ip), vehicle: water) was 94 % of control, the T/C (dose: 12.5 mg/kg/injection, schedule: Q01DX005 (ip), vehicle: water) was 96 % of control and the T/C (dose: 25.0 mg/kg/injection, schedule: Q01DX005 (ip), vehicle: water) was 96 % of control. The T/C (dose: 50.0 mg/kg/injection, schedule: Q01DX005 (ip), vehicle: water) was 97 % of control, the T/C (dose: 100.0 mg/kg/injection, schedule: Q01DX005 (ip), vehicle: water) was 92 % of control and the T/C (dose: 200.0 mg/kg/injection, schedule: Q01DX005 (ip), vehicle: water) was 111 % of control.
For `O=[N+]([O-])c1ccc(F)c(Cl)c1`, the T/C (dose: 25.0 mg/kg/injection, schedule: Q01DX009 (ip), vehicle: other) was 96 % of control, the T/C (dose: 50.0 mg/kg/injection, schedule: Q01DX009 (ip), vehicle: other) was 100 % of control and the T/C (dose: 100.0 mg/kg/injection, schedule: Q01DX009 (ip), vehicle: other) was 96 % of control.
`Cn1nc2ccccc2c1C#N` was tested, and the T/C (dose: 50.0 mg/kg/injection, schedule: Q01DX001 (ip), vehicle: saline) was 102 % of control, the T/C [4] was 103 % of control and the T/C [5] was 96 % of control.
`C[S+]1C=Cc2ccccc2C1c1ccc(Cl)cc1` (stereo not given) was tested, and the T/C (dose: 12.5 mg/kg/injection, schedule: Q04DX002 (ip), vehicle: Klucel (hydroxypropylcellulose) (HPC)) was 103 % of control, the T/C (dose: 25.0 mg/kg/injection, schedule: Q04DX002 (ip), vehicle: Klucel (hydroxypropylcellulose) (HPC)) was 100 % of control and the T/C (dose: 50.0 mg/kg/injection, schedule: Q04DX002 (ip), vehicle: Klucel (hydroxypropylcellulose) (HPC)) was 105 % of control.
For `CNNCc1ccc(C(=O)NC(N)=O)cc1`, the T/C (dose: 8.0 mg/kg/injection, schedule: Q03HX024 (ip), vehicle: saline) was 124 % of control, the T/C (dose: 16.0 mg/kg/injection, schedule: Q01DX005 (iv), vehicle: saline) was 123 % of control and the T/C (dose: 16.0 mg/kg/injection, schedule: Q03HX008 (ip), vehicle: saline) was 112 % of control. For the same molecule, the T/C (dose: 16.0 mg/kg/injection, schedule: Q03HX016 (ip), vehicle: saline) was 110 % of control, the T/C (dose: 16.0 mg/kg/injection, schedule: Q03HX024 (ip), vehicle: saline) was 124 % of control and the T/C (dose: 32.0 mg/kg/injection, schedule: Q01DX005 (iv), vehicle: saline) was 119 % of control. For the same molecule, the T/C (dose: 32.0 mg/kg/injection, schedule: Q01DX008 (ip), vehicle: saline) was 119 % of control, the T/C (dose: 32.0 mg/kg/injection, schedule: Q03HX008 (ip), vehicle: saline) was 115 % of control and the T/C (dose: 32.0 mg/kg/injection, schedule: Q03HX016 (ip), vehicle: saline) was 120 % of control. For the same molecule, the T/C (dose: 64.0 mg/kg/injection, schedule: Q01DX005 (iv), vehicle: saline) was 112 % of control, the T/C (dose: 64.0 mg/kg/injection, schedule: Q03HX008 (ip), vehicle: saline) was 117 % of control and the T/C (dose: 64.0 mg/kg/injection, schedule: Q04DX003 (ip), vehicle: saline) was 121 % of control. The T/C (dose: 128.0 mg/kg/injection, schedule: Q01DX001 (ip), vehicle: saline) was 107 % of control, the T/C (dose: 128.0 mg/kg/injection, schedule: Q01DX001 (iv), vehicle: saline) was 103 % of control and the T/C (dose: 128.0 mg/kg/injection, schedule: Q01DX001 (oral), vehicle: saline) was 114 % of control. The T/C (dose: 128.0 mg/kg/injection, schedule: Q01DX005 (iv), vehicle: saline) was 122 % of control, the T/C (dose: 128.0 mg/kg/injection, schedule: Q01DX009 (oral), vehicle: saline) was 164 % of control and the T/C (dose: 128.0 mg/kg/injection, schedule: Q04DX003 (ip), vehicle: saline) was 118 % of control. For the same molecule, the T/C (dose: 128.0 mg/kg/injection, schedule: Q08DX002 (ip), vehicle: saline) was 116 % of control, the T/C (dose: 222.0 mg/kg/injection, schedule: Q01DX Z (ip), vehicle: saline) was 162 % of control and the T/C (dose: 256.0 mg/kg/injection, schedule: Q01DX001 (ip), vehicle: saline) was 120 % of control. For the same molecule, the T/C (dose: 256.0 mg/kg/injection, schedule: Q01DX001 (iv), vehicle: saline) was 106 % of control, the T/C (dose: 256.0 mg/kg/injection, schedule: Q01DX001 (oral), vehicle: saline) was 117 % of control and the T/C (dose: 256.0 mg/kg/injection, schedule: Q01DX009 (oral), vehicle: saline) was 169 % of control. For the same molecule, the T/C (dose: 256.0 mg/kg/injection, schedule: Q04DX003 (ip), vehicle: saline) was 121 % of control, the T/C (dose: 256.0 mg/kg/injection, schedule: Q08DX002 (ip), vehicle: saline) was 123 % of control and the T/C (dose: 333.0 mg/kg/injection, schedule: Q01DX Z (ip), vehicle: saline) was 120 % of control. The T/C (dose: 512.0 mg/kg/injection, schedule: Q01DX001 (ip), vehicle: saline) was 124 % of control, the T/C (dose: 512.0 mg/kg/injection, schedule: Q01DX001 (iv), vehicle: saline) was 114 % of control and the T/C (dose: 512.0 mg/kg/injection, schedule: Q08DX002 (ip), vehicle: saline) was 118 % of control.
For `CCOC(=O)Nc1cc(Cl)ccc1O`, the T/C (dose: 100.0 mg/kg/injection, schedule: Q01DX009 (ip), vehicle: saline with Tween-80) was 103 % of control, the T/C [6] was 92 % of control and the T/C (dose: 200.0 mg/kg/injection, schedule: Q01DX009 (ip), vehicle: saline with Tween-80) was 104 % of control. The T/C (dose: 200.0 mg/kg/injection, schedule: Q04DX003 (ip), vehicle: saline with Tween-80) was 103 % of control and the T/C (dose: 400.0 mg/kg/injection, schedule: Q04DX003 (ip), vehicle: saline with Tween-80) was 88 % of control.
In the case of `O=C(C[n+]1cc2ccccc2c2ccccc21)c1ccccc1`, the T/C (dose: 100.0 mg/kg/injection, schedule: Q04DX003 (ip), vehicle: saline) is reported as 95 % of control and the T/C (dose: 200.0 mg/kg/injection, schedule: Q04DX003 (ip), vehicle: saline) is reported as 86 % of control.
For `C=CC(=O)NC(C)(C)CC(C)=O`, the T/C [1] was 98 % of control, the T/C [4] was 103 % of control and the T/C (dose: 100.0 mg/kg/injection, schedule: Q01DX009 (ip), vehicle: saline) was 100 % of control. The T/C [2] was 102 % of control, the T/C [5] was 97 % of control and the T/C (dose: 200.0 mg/kg/injection, schedule: Q01DX009 (ip), vehicle: saline) was 100 % of control. For the same molecule, the T/C [3] was 102 % of control and the T/C (dose: 400.0 mg/kg/injection, schedule: Q01DX001 (ip), vehicle: saline) was 102 % of control.
In the case of `CC(Cc1ccccc1)NNC(C)Cc1ccccc1` (stereo not given), the T/C [7] is reported as 98 % of control, the T/C [8] is reported as 102 % of control and the T/C [9] is reported as 97 % of control.
`C[n+]1cccc(C(=S)[S-])c1` was tested, and the T/C (dose: 25.0 mg/kg/injection, schedule: Q01DX009 (ip), vehicle: saline with Tween-80) was 102 % of control, the T/C (dose: 50.0 mg/kg/injection, schedule: Q01DX009 (ip), vehicle: saline with Tween-80) was 101 % of control and the T/C [6] was 101 % of control.
For `COc1ccc(OC)c(/C=C/c2ccc3ccccc3[n+]2C)c1`, the T/C (dose: 5.0 mg/kg/injection, schedule: Q01DX009 (ip), vehicle: saline with Tween-80) was 98 % of control and the T/C (dose: 10.0 mg/kg/injection, schedule: Q01DX009 (ip), vehicle: saline with Tween-80) was 88 % of control.
`OC(c1ccccc1Cl)C(Cl)(Cl)Cl` (stereo not given) was tested, and the T/C (dose: 50.0 mg/kg/injection, schedule: Q01DX009 (ip), vehicle: Klucel (hydroxypropylcellulose) (HPC)) was 96 % of control, the T/C (dose: 100.0 mg/kg/injection, schedule: Q01DX009 (ip), vehicle: Klucel (hydroxypropylcellulose) (HPC)) was 93 % of control and the T/C (dose: 200.0 mg/kg/injection, schedule: Q01DX009 (ip), vehicle: Klucel (hydroxypropylcellulose) (HPC)) was 104 % of control.
For `CCCCCCCCCCCCCC[N+]1(CC)CCCCC1`, the T/C (dose: 0.12 mg/kg/injection, schedule: Q01DX009 (ip), vehicle: saline) was 100 % of control, the T/C (dose: 0.39 mg/kg/injection, schedule: Q01DX009 (ip), vehicle: saline) was 103 % of control and the T/C (dose: 0.78 mg/kg/injection, schedule: Q01DX009 (ip), vehicle: saline) was 106 % of control. The T/C (dose: 1.56 mg/kg/injection, schedule: Q01DX009 (ip), vehicle: saline) was 97 % of control.
In the case of `CCC(CC)=NN(C)C`, the T/C [7] is reported as 100 % of control, the T/C [8] is reported as 96 % of control and the T/C [9] is reported as 96 % of control.
With `O=c1scc(-c2ccc([N+](=O)[O-])cc2)s1` the T/C (dose: 12.5 mg/kg/injection, schedule: Q04DX003 (ip), vehicle: Klucel (hydroxypropylcellulose) (HPC)) was 104 % of control and the T/C (dose: 25.0 mg/kg/injection, schedule: Q04DX003 (ip), vehicle: Klucel (hydroxypropylcellulose) (HPC)) was 91 % of control.
With `CCOC(=O)Nc1cc(NCCCCc2ccccc2)c(N)c(N)n1` the T/C [1] was 102 % of control and the T/C [2] was 109 % of control.
